What was measured:
Assay type in all cases: cell-based, murine
[1] = system: COX-2; test: COX-2 assay (cell membrane damage by RDT); conditions: CT26, 10 μM 4 h; for COX-2 mean fluorescence intensities (flow cytometry): with X-ray irradiation
Method: Thus, the cell membrane damage caused by RDT upon X-ray irradiation was investigated by COX-2 assay (BD Bioscience, Franklin Lakes, New Jersey, United States of America) in CT26 cells. Cells were seeded on cover slides in 6-well plates and cultured for 12 h then incubated with Hf12-DBP, Hf12-DBP-Pt, H2DBP-Pt or PBS at a Hf concentration of 10 μM or ligand with concentration of 10 μM for 4 h followed by X-ray irradiation (250 kVp, 15 mA, mm Cu filter) at 0 and 2 Gy dose. Cells were fixed with 4% paraformaldehyde immediately after X-ray or light irradiation. Biotin-conjugated anti-COX-2 antibody with concentration of 10 μg/mL were incubated with cells at 4° C. overnight then followed by incubation with Cy3-conjugated streptavidin. The nuclei were stained with DAPI. […] The cells were imaged with CLSM and quantified by flow cytometry.
To further study the stronger RDT effect from the Hf12-DBP-Pt treated group, flow cytometry was performed to quantify the difference of COX-2 upregulation of cells treated with Hf12-DBP-Pt, Hf12-DBP, H2DBP-Pt or H2DBP. The mean fluorescence intensities were 7441, 1804, 821, and 225 for the t cells treated with Hf12-DBP-Pt, Hf12-DBP, H2DBP-Pt and H2DBP with X-ray irradiation, respectively.

[2] = system: CT26 cells; test: Intracellular singlet oxygen generation (SOSG, CLSM), Example 1; conditions: 20 μM based on Ir, Ru or BPY, 8 h, X-ray 2 Gy
Method: ^1O2 generation in live cells was detected by Singlet Oxygen Sensor Green (SOSG, Life Technology, USA). CT26 cells were seeded in a 3.5-cm petri dish and cultured for 12 h. The culture medium was then replaced with fresh medium containing 1 μM SOSG to preload the cells with SOSG. After incubating for 30 min, the cells were washed by PBS three times to remove excess SOSG. The cells were incubated in PBS, with Hf-MOLs or ligands at a ligand concentration of 20 μM for 8 h, then washed with PBS three times to remove excess MOLs or ligands. X-ray irradiation was applied to cells at a dose of 2 Gy (250 kVp, 15 mA, 1-mm Cu filter). Confocal laser scanning microscopy (CLSM; FV1000 Laser Scanning Confocal Microscope, Olympus Corporation, Tokyo, Japan) was used to visualize the ^1O2 generated in the live cells by detecting the green fluorescence inside the cells.
The mechanism of X-ray induced cytotoxicity on CT26 cells was explored. ^1O2 generation in live cells was examined by Singlet Oxygen Sensor Green (SOSG) and detected by confocal laser scanning microscopy (CLSM). After preloading cells with SOSG and incubating them with PBS, Hf-MOLs, or H3BPY ligand for 8 h at a concentration of 20 μM based on Ir, Ru, or BPY, respectively, they were irradiated with X-rays at a dose of 2 Gy, immediately followed by CLSM imaging.

[3] = system: MC38 cells; test: Annexin V/dead cell apoptosis kit, flow cytometry, MC38; conditions: 48 h
Method: (§1) The in vitro anticancer efficacy of Hf12-DBP and Hf12-DBP-Pt were further evaluated on CT26 and MC38 cells. Cells were cultured in a 6-well plate overnight and incubated with particles at a Hf concentration of 20 μM for 4 h followed by irradiation with 0 or 2 Gy X-ray (250 kVp, 15 mA, 1 mm Cu filter). 48 h later, the cells were stained according to the AlexaFluor 488 Annexin V/dead cell apoptosis kit (Life Technologies, Carlsbad, California United States of America) and quantified by flow cytometry.
as §1, with “POM, Hf6-QPDC-Ir, Hf12-QPDC-Ir” for “Hf12-DBP”, “POM@Hf12-QPDC-Ir” for “Hf12-DBP-Pt”, “were” for “were further”, “μM or equivalent W concentration” for “μM”, “California,” for “California”, “cytometry. […]” for “cytometry.”

[4] = system: CT26 cells; test: Annexin V/dead cell apoptosis kit, flow cytometry, CT26; conditions: 48 h
Method: as §1
as §1, with “POM, Hf6-QPDC-Ir, Hf12-QPDC-Ir” for “Hf12-DBP”, “POM@Hf12-QPDC-Ir” for “Hf12-DBP-Pt”, “were” for “were further”, “μM or equivalent W concentration” for “μM”, “California,” for “California”

[5] = Table 9, 0 Gy (dark), Hf 20 μM 4 h
[6] = Table 9, 2 Gy X-ray, Hf 20 μM 4 h
[7] = Table 8, 0 Gy (dark), Hf 20 μM 4 h
[8] = Table 8, 2 Gy X-ray, Hf 20 μM 4 h
[9] = Table 11, 0 Gy (dark), Hf 20 μM or equivalent W 4 h
[10] = Table 11, 2 Gy X-ray, Hf 20 μM or equivalent W 4 h
[11] = Table 10, 0 Gy (dark), Hf 20 μM or equivalent W 4 h
[12] = Table 10, 2 Gy X-ray, Hf 20 μM or equivalent W 4 h

With O=C(O)c1ccc(-c2c3nc(cc4ccc([nH]4)c(-c4ccc(C(=O)O)cc4)c4nc(cc5ccc2[nH]5)C=C4)C=C3)cc1 [H2DBP, 5,15-di(p-benzoato)porphyrin] the “COX-2 mean fluorescence intensities (flow cytometry)” value [1] was 225.

With O=C(O)c1ccc(-c2cc(-c3ccc(C(=O)O)cc3)nc(-c3cc(C(=O)O)ccn3)c2)cc1 [H3BPY, 4′,6′-dibenzoato-[2,2′-bipyridine]-4-carboxylic acid] the “SOSG fluorescence (^1O2 in live cells)” value [2] was “no SOSG signal”.

In the case of O=C(O)c1ccc(-c2c3nc(cc4ccc([n-]4)c(-c4ccc(C(=O)O)cc4)c4nc(cc5ccc2[n-]5)C=C4)C=C3)cc1.[Pt+2] [H2DBP-Pt, platinum-complexed 5, 15-di(p-benzoato)porphyrin], the Early apoptosis [3, 5] was 3.99%, the Healthy cells [3, 5] was 93.9% and the Late apoptosis [3, 5] was 1.90%. For the same compound, the Necrosis [3, 5] was 3.18%, the Early apoptosis [3, 6] was 15.9% and the Healthy cells [3, 6] was 78.2%. The Late apoptosis [3, 6] was 5.31%, the Necrosis [3, 6] was 0.55% and the Early apoptosis [4, 7] was 0.66%. It also gave a Healthy cells [4, 7] of 88.2%, a Late apoptosis [4, 7] of 4.86% and a Necrosis [4, 7] of 6.26%. The Early apoptosis [4, 8] was 0.73%, the Healthy cells [4, 8] was 69.3% and the Late apoptosis [4, 8] was 8.45%. For the same compound, the Necrosis [4, 8] was 21.5%, the “COX-2 mean fluorescence intensities (flow cytometry)” value [1] was 821 and the “COX-2 upregulation by CLSM” value ([1]; with X-ray irradiation (2 Gy)) was “No fluorescence signal”. For the same compound, the “COX-2 upregulation by CLSM” value ([1]; without X-ray irradiation) was “No fluorescence signal”.

[P2W18O62]^6− [POM, reference compound] showed an Early apoptosis [3, 9] of 0.44%, a Healthy cells [3, 9] of 97.3% and a Late apoptosis [3, 9] of 0.86%. For the same compound, the Necrosis [3, 9] was 1.53%, the Early apoptosis [3, 10] was 2.35% and the Healthy cells [3, 10] was 70.9%. The Late apoptosis [3, 10] was 14.0%, the Necrosis [3, 10] was 12.7% and the Early apoptosis [4, 11] was 0.051%. The Healthy cells [4, 11] was 99.7%, the Late apoptosis [4, 11] was 0.0057% and the Necrosis [4, 11] was 0.21%. It also gave an Early apoptosis [4, 12] of 5.71%, a Healthy cells [4, 12] of 83.1% and a Late apoptosis [4, 12] of 8.14%. It also gave a Necrosis [4, 12] of 3.05%.

— patent US11826426B2, “Nanoscale metal-organic layers and metal-organic nanoplates for x-ray induced photodynamic therapy, radiotherapy, radiodynamic therapy, chemotherapy, immunotherapy, and any combination thereof” (priority 2017, dated 2023)
